Holding throughout (assay type): cell-based, human
For data set [1], the system named is AML blasts. Description: Tyrosine phosphorylation inhibition with genistein, effect on HA-induced differentiation. As to conditions: genistein 1 hour, then HA five days. The protocol: (§1) Tyrosine phosphorylation inhibition with genistein: 2.10^5 AML blasts, suspended in 200 μl of RPMI 1640/10% FCS medium, were incubated in the presence of 50 nM/l of genistein (Calbiochem-Novabiochem, San Diego, Calif.) for 1 hour at 37° C., and then in the presence of HA for either one hour (for studies on cytokine transcript expression), or five days (for studies on differentiation).

Data set [2] has as its system AML blasts. Description: Trypan blue exclusion test. As to conditions: genistein then HA. On the procedure: as §1
The subject of data set [3] is AML blasts. The data set can be described thus: AML blast differentiation induced by HA or anti-CD44 mAbs (NBT, CD14/CD15, cytology criteria). The source says: Leukaemic peripheral blood or bone marrow samples were taken at the time of diagnosis, after informed consent, from 36 patients suffering from acute myeloid leukaemia (AML). The diagnosis of the disease and its classification comply with French-American-British (FAB) classification criteria.
Fresh or frozen AML cells were enriched by centrifugation according to the density gradient in the presence of Ficoll, and washed in RPMI 1640 medium containing 10% foetal calf serum (FCS). The frozen cells were thawed at ambient temperature in RPMI 1640 medium containing 50% FCS, and then washed twice in RPMI medium supplemented with 10% FCS. B and T lymphocytes were eliminated from all the samples, along with monocytes for the AML1/2 and AML3 samples. This elimination was performed by specific immunoadsorption of Dynabeads beads (Dynal, Oslo, Norway) coated with monoclonal antibodies directed against the specific surface antigens CD2 and CD19 (lymphocytes) and CD14 (monocytes), according to the manufacturer's instructions. In this way, cell suspensions containing more than 95% AML blasts were obtained.
(§2) AML blast treatment with HA. Cell suspensions containing more than 95% AML blasts were deposited in triplicate at a rate of 2.105 cells per ml of RPMI 1640/10% FCS in tissue culture plates (Costar Corp., Cambridge, Mass.) with 96 wells each containing 150 μl of medium, and placed in incubation for 5 days in the presence of 20 μg/ml of hyaluronic acid (hHA, HA-6 or HA-12). HA was added at the specified concentrations and chondroitin sulphate was added to the negative controls. The plates were placed in an incubator at 37° C. in a humid atmosphere for […], and the cells underwent the differentiation studies as described below.
Differentiation was detected by analysing 3 criteria: 1) the ability to produce an oxidation-reduction reaction in response to a phorbol ester: this oxidation-reduction reaction is detected with nitroblue tetrazolium NBT reduction, 2) the expression of specific antibodies for differentiation (specific CD14 for monocytes, and specific CD15 for granulocytes), and 3) specific cytological modifications. All these criteria are specific to normal differentiate granulocyte or monocyte cells.

The subject of data set [4] is AML blasts. The data set can be described thus: Nitroblue tetrazolium (NBT) reduction test. The protocol: as §2
Nitroblue tetrazolium (NBT) reduction test: The ability to reduce NBT was measured using conventional techniques. Briefly, 2.10^5 cells were suspended in 900 μl of RPMI 1640 medium and were incubated in the presence of 0.2 μg/ml of 12-O-tetradecanoylephorbol-13-acetate (TPA, Sigma) and 0.5 mg/ml of NBT (Sigma) for 30 minutes at 37° C. The reaction was stopped at 4° C., the cells were cytocentrifuged and subjected to May-Grünwald-Giemsa staining agent. The percentage of cells containing black NBT reduction deposits was determined in duplicate, under an optical microscope, after examining 300 cells.

The test system of data set [5] is AML blasts. Description: Flow cytometry analysis of CD14 and CD15 expression. The protocol: as §2
Flow cytometry analysis of CD14 and CD15 expression: the AML blasts were suspended at a rate of 10^5 blasts/ml of RPMI 1640 medium containing 0.02% bovine serum albumin and 0.02% […] NaN3, and were then incubated at 4° C. for 30 minutes in the presence of mAbs conjugated with fluorescein isothiocyanate (FITC), and directed against CD14 (5 μg/ml IgG2b, Coulter Immunology, Hialeah, Fla.) or directed against CD15 (1 μg/ml IgM, Becton Dickinson, San José, Calif.). The mAbs were used at saturation concentrations. The murine IgM and IgG2b conjugated with FITC were obtained from Coulter-Immunotech (Coulter-Immunotech Inc., Westbrook, Me.), and were used at a 1:50 dilution. The bonding of the mAbs directed against CD14 and CD15 was quantified by measuring, by flow cytometry, the cell fluorescence in relation to that of cells labelled with the IgG-FITC. The measurement was made using a FACSvantage (Becton Dickinson) equipped with an INNOVA70-4 argon ion laser (Coherent Radiation, Palo Alto, Calif.) set at 488 nm and operating at 500 mW. The flow cytometer was calibrated using fluorescent beads (Becton Dickinson). This measurement was made on 3000 cells.
A general note: A flow cytometer gives signals particle by particle.

Data set [6] relates to AML blasts. Description: Cytological study (May-Grünwald-Giemsa staining). On the procedure: as §2
The cell smears, prepared in triplicate, were stained by May-Grünwald-Giemsa staining and their cytology was examined under an optical microscope.

The subject of data set [7] is intracellular tyrosine phosphorylations in AML blasts. Description: Protein phosphorylation analysis on tyrosine residue. The conditions noted are these: AML5 blasts, 6D12-FITC flow cytometry. On the procedure: Protein phosphorylation induction on tyrosine residue: HA-12 (50 μg/ml) was added at the time t=0 to 2.10^5 AML blasts suspended, at ambient temperature, in 200 μl of RPMI 1640 medium containing 10% FCS. At t=1 min, 5 min, 15 min and 30 min, 200 μl of Permeafix Ortho (Coulter-Immunotech Inc., Westbrook, Me.) was added to stop the phosphorylations and permeabilise the cells. After 40 minutes of incubation at ambient temperature, and three washes in PBS, the phosphorylated proteins on the tyrosine residue were labelled specifically with 6D12 mAb (used at 2 μg/ml conjugated with FITC, and the labelling intensity was measured by flow cytometry with reference to the isotype control (cells labelled with IgG1 conjugated with FITC), as described above.

In data set [8] the test system is M-CSF transcripts. Description: RT-PCR cytokine transcript expression study. As to conditions: out of 3 cases, 1 hour after HA treatment. The protocol: RT-PCR cytokine transcript expression study: the total RNA was extracted from 5.10^5 cells using Trizol reagent (Life Technologies, Cergy Pontoise, France), followed by a phenolchloroform extraction and isopropanol precipitation. One microgram of total RNA heated at 70° C. for 10 minutes was used as a matrix for the synthesis of the first strand of complementary DNA (cDNA), by adding reverse transcriptase and random hexamers (Life Technologies). The transcript of the glyceraldehyde phosphodehydrogenase (GADPH) housekeeping gene was used as an internal marker for the PCR reaction (0.24 kb amplification product). Equilibrated quantities of cDNA were used for the PCR amplification of the cytokine transcripts, the primers used for PCR were as follows: […]
The PCR protocol consisted of 30 cycles of 94° C. for 1 minute, 58° C. for 1 minute and 72° C. for 1 minutes, using a thermocycler (Perkin Elmercetus, Norwalk, Conn.) For each experiment, two negative controls were subject to all the steps.

Where [9] appears, read: Total number, 35 cases analysed.

“And” between values parts separate entries of the source, which are not always exact repeats. Identical values can stand only once.

For the molecule `O=c1c(-c2ccc(O)cc2)coc2cc(O)cc(O)c12` [genistein], the “effect on AML3 and AML5 differentiation induced by CD44 (HA treatment)” value in data set [1] is listed as “inhibits this differentiation”. Further, in data set [2], the cell viability entry is listed as “greater than 95%”.

As to hyaluronic acid [HA], the “Number of cases of differentiation” value in data set [3] (AML1/2, 7 cases analysed, 20 μg/ml HA, 5 days) was 5/7 and 5; in data set [3] (AML3, 16 cases analysed, 20 μg/ml HA, 5 days), 12/16 and 12; in data set [3] (AML4, 4 cases analysed, 20 μg/ml HA, 5 days) it was 3/4 and 3; in data set [3] (AML5, 8 cases analysed, 20 μg/ml HA, 5 days), 6/8 and 6; in data set [3] (setting [9]), 26. In data set [3] (setting [9]), the “Number of cases of differentiation, as % of cases analysed” value was 74%. In addition, in data set [3] (all AML patients (36)), the “cases of AML in which it was not possible to induce differentiation” value is recorded as 9/36. The “% NBT^+ cells, median value” in data set [4] (AML1/2, 5 out of 7 cases) was found to be 22%; in data set [4] (AML3, 12 out of 16 cases) it was 42%; in data set [4] (AML4), 55%; in data set [4] (AML5, 6 out of 8 cases), 52%. Besides, in data set [4] (AML3, 6 of the 12 responding cases), the “% NBT^+ cells in the cases as high as with all-transretinoic acid” value is on record as “over 50%”. In data set [4] (AML4), the “median % NBT^+ cells relative to controls” value stood at 3 times. In addition, the results for the “% NBT^+ cells (extreme values)” value in data set [4] (M3 (AML3) blasts), in data set [4] (M4 (AML4) blasts) and in data set [4] (M5 (AML5) blasts) were 20%-80%, 43%-90% and 32%-70%, respectively. For the same molecule, the “factor by which MFI values (CD14, CD15) multiplied” value in data set [5] (AML1/2) was “around 2”; in data set [5] (AML4), 3. In addition, in data set [5] (AML1/2, of the 8 cases), the “cases in which expression of both CD14 and CD15 increased” value is recorded as 6. Moreover, in data set [5] (AML3), the “increase of CD15 MFI values” is “approximately 3 fold”. Besides, the “cases in which maturation was as marked as after all-transretinoic acid” value in data set [5] (AML3, of the 12 cases) was 8. For the same molecule, the “cases in which maturation was as marked as after all-transretinoic acid, %” value in data set [5] (AML3, of the 12 cases) stood at 66%. The “number of samples in which the % of CD15^+ cells increased” value in data set [5] (AML3, out of 16 samples) was 12. Besides, in data set [5] (AML4), the “factor by which % of CD14 and CD15 positive cells multiplied” value turned out to be 2. Moreover, the “dose up to which differentiation intensity (CD14 MFI) is related to the dose” value in data set [5] (AML5 blasts, HA-12 (FIG. 3A)) is on record as “up to 15 μg/ml”. Besides, the “% CD15+ cells (extreme values)” value was 22-100% in data set [5] (M1/M2 (AML1/2) blasts) and 42-90% in data set [5] (M3 (AML3) blasts). Besides, the “% CD15^− cells median values” in data set [5] (M3 (AML3) blasts) was found to be 78%. In addition, the “CD14 MFI value” in data set [5] (one AML5 sample with CD14 in negative controls (102 in the negative controls)) is reported as “up to 340 arbitrary units”. Also, the “cytological change after treatment” value in data set [6] (AML1/2 blasts) was “No cytological change was observed”. In addition, the “cytological characteristics after treatment” value in data set [6] (AML3 blasts, 5 days) was “a segmented nucleus, a low nucleo-cytoplasmic ratio, rare nucleoles, some azurophilic granulations”; in data set [6] (AML5 blasts) it was “a decrease in the nucleus/cytoplasm ratio, a decrease in the number of nucleoles, chromatin condensation, and irregular cytoplasmic contours”. Also, the “induction of intracellular tyrosine phosphorylations” value in data set [7] was “already induced after one minute of treatment”. In addition, in data set [8] (M1/M2 AML), the “cases with M-CSF transcripts detected” value is 1. The “cases with M-CSF transcript detected” value in data set [8] (M5 AML) was found to be 1.

For `CC1=C(/C=C/C(C)=C/C=C/C(C)=C/C(=O)O)C(C)(C)CCC1` [RA, all-transretinoic acid, reference compound], the “% NBT^+ cells (extreme values)” value in data set [4] (M3 (AML3) blasts) was “(RA: 47-90) %”.

The record behind these values is patent US20040204384A1, “Methods for regulating hematopoietic cell differentiation with polymers containing disaccharide units” (Institut National De La Sante Et De La Recherche Medial …, priority 1999, published 2004).
